Experimental data as given in patent publication US11001587B2, “Substituted indazoles as phosphatidylinositol kinase inhibitors” (CUROVIR AB, priority 2017, dated 2021).

How the values were obtained:
[1] = Metabolic stability in human liver microsomes; format: in vitro ADME
Procedure: (§1) Metabolic stability in human and rat liver microsomesMetabolic stability was studied using human (HLM) or rat (RLM) liver microsomes. The final composition of the assay included 5 μM of test item and reference item (Diclofenac or Imipramine) prepared from DMSO stock, so that the final concentration of DMSO was 0.1%, 0.125 mg/mL microsomal protein and cofactors (5.0 mM G-6-P, 0.06 U/mL G-6-PDH, 2.0 mM MgCl2, 1.0 mM NADP^+). Test and reference items were incubated with human or rat liver microsomes with or without cofactors. The reaction mixture (100 μL) was removed at specified time periods and the reaction was stopped by addition of stop solution. The samples were extracted in presence of internal standard and were analyzed using LC-MS/MS. The percent of the test/reference item remaining after a specified incubation period was calculated with respect to the peak area ratio at time 0 min.

[2] = Metabolic stability in rat liver microsomes; format: in vitro ADME; settings: 5 μM test item, 0.125 mg/mL microsomal protein
Procedure: as §1

[3] = test system: coxsackie B2 virus; assay: In vitro CPE assay in mammalian cell culture, B2; format: cell-based; settings: viral cytopathic effect in mammalian cell culture, read-out: B2 inhibition capacity (IC50)
[4] = in vitro; format: in vitro ADME; settings: plasma, pH 7.4
Procedure: Plasma protein binding study was performed by using a Rapid Equilibrium Dialysis (RED) device containing dialysis membrane with a molecular weight cut-off of 8,000 Daltons. Each dialysis insert contains two chambers. The red chamber was for the plasma while the white chamber was for the buffer. The human and rat plasma (pH adjusted to 7.40) samples of test items and reference items (Warfarin and Propranolol) were prepared at a required test concentration of 5 μM using 5 mM DMSO stocks (final DMSO concentration was 0.1%). 300 μL of plasma sample was added into the sample chamber. 500 μL of buffer was added into the buffer chamber. After sealing the RED device with an adhesive film, incubation was done at 37° C. with shaking at 300 rpm for 4 h. Following incubation, an aliquot of 50 μL was removed from each well (plasma and buffer side) and diluted with equal volume of opposite matrix to nullify the matrix effect. The specimens were subjected to sample extraction in presence of internal standard by liquid-liquid extraction/protein precipitation method. After extraction, the samples were transferred into labeled auto sampler vials and submitted to LC-MS/MS analysis.

[5] = test system: coxsackie B3 virus; assay: In vitro CPE assay in mammalian cell culture, B3; format: cell-based; settings: Enterovirus B, viral cytopathic effect in mammalian cell culture, read-out: B3 inhibition capacity (IC50)
[6] = test system: Enterovirus 68; assay: In vitro CPE assay in mammalian cell culture, EV68; format: cell-based; settings: Enterovirus D, viral cytopathic effect in mammalian cell culture, read-out: EV68 inhibition capacity (IC50)
[7] = biological target: PI3Kβ (Homo sapiens, UniProt P42338); assay: PI3 kinase inhibition HTRF assay; format: biochemical; settings: * no inhibition at the highest tested concentration 1 μM
Chain of PI3Kβ (P42338 whole entry, species assumed): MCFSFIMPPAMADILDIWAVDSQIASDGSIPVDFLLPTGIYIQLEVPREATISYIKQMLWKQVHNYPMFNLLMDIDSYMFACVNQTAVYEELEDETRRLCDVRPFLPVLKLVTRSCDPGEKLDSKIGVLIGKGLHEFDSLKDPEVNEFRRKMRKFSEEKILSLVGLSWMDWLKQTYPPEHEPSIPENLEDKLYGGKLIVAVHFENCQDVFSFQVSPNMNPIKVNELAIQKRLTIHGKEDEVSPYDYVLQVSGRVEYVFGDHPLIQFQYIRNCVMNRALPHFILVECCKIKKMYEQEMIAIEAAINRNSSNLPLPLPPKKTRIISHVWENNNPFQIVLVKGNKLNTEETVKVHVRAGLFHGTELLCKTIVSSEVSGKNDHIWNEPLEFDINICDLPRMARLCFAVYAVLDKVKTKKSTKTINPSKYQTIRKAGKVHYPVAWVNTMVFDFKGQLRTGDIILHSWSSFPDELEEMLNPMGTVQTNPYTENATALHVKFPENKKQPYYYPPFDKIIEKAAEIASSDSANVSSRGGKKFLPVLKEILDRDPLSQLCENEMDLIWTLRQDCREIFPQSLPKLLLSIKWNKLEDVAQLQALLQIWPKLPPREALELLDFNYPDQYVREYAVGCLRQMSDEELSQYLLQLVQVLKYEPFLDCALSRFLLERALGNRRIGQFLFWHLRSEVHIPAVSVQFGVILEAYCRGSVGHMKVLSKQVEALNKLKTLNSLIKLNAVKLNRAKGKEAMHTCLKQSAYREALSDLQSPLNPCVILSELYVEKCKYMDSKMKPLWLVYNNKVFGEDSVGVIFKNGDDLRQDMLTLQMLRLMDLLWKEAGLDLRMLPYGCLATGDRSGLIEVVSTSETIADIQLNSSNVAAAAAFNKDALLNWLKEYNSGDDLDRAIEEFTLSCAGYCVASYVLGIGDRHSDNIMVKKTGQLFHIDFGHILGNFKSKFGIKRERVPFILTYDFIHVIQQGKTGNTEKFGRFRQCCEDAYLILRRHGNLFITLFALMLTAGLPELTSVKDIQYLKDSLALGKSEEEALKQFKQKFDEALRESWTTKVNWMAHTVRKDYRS
Chain of PI3Kβ (P27986 whole entry partner, species assumed): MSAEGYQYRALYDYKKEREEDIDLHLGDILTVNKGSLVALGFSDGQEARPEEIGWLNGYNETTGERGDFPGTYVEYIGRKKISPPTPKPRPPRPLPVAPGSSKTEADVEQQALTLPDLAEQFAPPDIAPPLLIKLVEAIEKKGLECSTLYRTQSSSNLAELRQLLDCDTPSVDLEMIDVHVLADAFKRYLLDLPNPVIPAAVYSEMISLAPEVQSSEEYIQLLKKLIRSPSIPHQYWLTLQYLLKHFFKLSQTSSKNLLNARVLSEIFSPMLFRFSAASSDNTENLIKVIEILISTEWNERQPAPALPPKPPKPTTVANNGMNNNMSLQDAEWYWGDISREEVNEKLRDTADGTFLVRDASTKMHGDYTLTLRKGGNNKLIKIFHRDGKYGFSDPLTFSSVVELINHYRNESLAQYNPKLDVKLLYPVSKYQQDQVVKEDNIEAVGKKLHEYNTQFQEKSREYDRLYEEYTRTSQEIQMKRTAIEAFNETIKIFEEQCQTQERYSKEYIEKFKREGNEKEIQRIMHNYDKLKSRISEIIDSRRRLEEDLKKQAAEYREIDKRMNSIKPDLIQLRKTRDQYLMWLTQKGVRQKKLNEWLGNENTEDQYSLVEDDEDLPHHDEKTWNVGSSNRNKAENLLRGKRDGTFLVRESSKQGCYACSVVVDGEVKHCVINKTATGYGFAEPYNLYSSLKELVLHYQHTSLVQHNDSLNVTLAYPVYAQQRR
Procedure: (§2) Phosphatidyl inositol kinase inhibition assay Inhibition of PI4 kinases was studied using the ADP-Glo™ Kinase Assay which is a luminescent kinase assay that measures ADP formed from a kinase reaction, wherein ADP is converted into ATP, which is converted into light by Ultra-Glo™ Luciferase. The assay is performed in two steps; first, after the kinase reaction, an equal volume of ADP-Glo™ Reagent is added to terminate the kinase reaction and deplete the remaining ATP. In the second step, the Kinase Detection Reagent is added, which simultaneously converts ADP to ATP and allows the newly synthesized ATP to be measured using a coupled luciferase/luciferin reaction. The luminescent signal produced is proportional to the activity of the kinase. Inhibition of PI3 kinases was studied using the HTRF (homogeneous time-resolved fluorescence) assay, which is a universal method for identifying and characterizing the phosphotransferase activity induced by any ATP/ADP dependent target. The formation of ADP was detected by a specific monoclonal antibody labeled with Eu^3+ cryptate, and directly correlated with the amount of phosphorylated substrate.

[8] = biological target: PI3Kα (Homo sapiens, UniProt P42336); assay: PI3 kinase inhibition HTRF assay; format: biochemical; settings: * no inhibition at the highest tested concentration 1 μM
Chain of PI3Kα (P42336 whole entry, species assumed): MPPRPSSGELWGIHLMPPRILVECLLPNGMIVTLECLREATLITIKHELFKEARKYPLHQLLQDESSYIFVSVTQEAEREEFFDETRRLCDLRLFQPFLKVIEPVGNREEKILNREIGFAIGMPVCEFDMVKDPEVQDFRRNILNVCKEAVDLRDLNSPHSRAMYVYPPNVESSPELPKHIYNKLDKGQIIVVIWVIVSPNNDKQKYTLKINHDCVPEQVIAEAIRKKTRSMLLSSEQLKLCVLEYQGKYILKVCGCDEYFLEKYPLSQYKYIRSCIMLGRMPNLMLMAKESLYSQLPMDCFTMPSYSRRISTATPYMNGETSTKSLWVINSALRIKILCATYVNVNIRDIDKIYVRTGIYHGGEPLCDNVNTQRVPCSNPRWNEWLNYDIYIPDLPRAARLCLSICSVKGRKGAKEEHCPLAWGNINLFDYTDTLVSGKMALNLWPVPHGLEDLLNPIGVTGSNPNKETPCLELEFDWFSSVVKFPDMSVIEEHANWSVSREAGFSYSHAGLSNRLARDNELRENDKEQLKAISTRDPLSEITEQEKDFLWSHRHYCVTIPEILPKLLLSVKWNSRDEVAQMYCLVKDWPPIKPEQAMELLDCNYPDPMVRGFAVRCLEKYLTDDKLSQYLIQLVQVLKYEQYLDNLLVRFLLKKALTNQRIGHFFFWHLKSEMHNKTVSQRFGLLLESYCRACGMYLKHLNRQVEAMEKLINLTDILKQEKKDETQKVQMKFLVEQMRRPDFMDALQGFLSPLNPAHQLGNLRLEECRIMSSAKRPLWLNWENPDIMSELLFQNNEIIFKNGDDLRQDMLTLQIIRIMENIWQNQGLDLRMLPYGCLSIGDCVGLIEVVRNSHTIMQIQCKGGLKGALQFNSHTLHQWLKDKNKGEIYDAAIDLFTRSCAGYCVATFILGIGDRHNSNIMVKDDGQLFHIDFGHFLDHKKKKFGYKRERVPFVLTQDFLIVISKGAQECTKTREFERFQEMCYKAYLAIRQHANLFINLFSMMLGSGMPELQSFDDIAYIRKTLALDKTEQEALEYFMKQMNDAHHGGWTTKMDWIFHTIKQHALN
Chain of PI3Kα (P27986 whole entry partner, species assumed): as the sequence (P27986 whole entry partner, species assumed) above
Procedure: as §2

[9] = in vivo; design: species or system Sprague Dawley rats; settings: Sprague Dawley, rat, po
Procedure: Based on previous toxicity tests with analogs and pharmacokinetic data, repeated dose toxicity and toxicokinetic studies were conducted to generate information on the toxic characteristics of some representative compounds of the invention, viz. Example 8 and Example 12, respectively, when administered orally by gavage to Sprague Dawley rats for a period of 7 consecutive days. The study plan for the studies was by current ICH guidelines for 7 days toxicity studies and the No Observed Adverse Effect Level (NOAEL) of Example 8 and Example 12 was determined as 60 mg/kg body weight/day and 50 mg/kg bodyweight/day respectively when administered once daily orally to Sprague Dawley rats for 7 consecutive days under the tested dose levels and experimental conditions employed.

[10] = test system: Enterovirus 71; assay: In vitro CPE assay in mammalian cell culture, EV71; format: cell-based; settings: Enterovirus A, viral cytopathic effect in mammalian cell culture, read-out: EV71 inhibition capacity (IC50)
[11] = test system: polio virus Sabin 1; assay: organism not typed; format: cell-based; settings: read-out: Polio 1 inhibition capacity (IC50)
[12] = test system: Enterovirus 30; assay: In vitro CPE assay in mammalian cell culture, EV30; format: cell-based; settings: viral cytopathic effect in mammalian cell culture, read-out: EV30 inhibition capacity (IC50)
[13] = test system: coxsackie B1 virus; assay: In vitro CPE assay in mammalian cell culture, B1; format: cell-based; settings: viral cytopathic effect in mammalian cell culture, read-out: B1 inhibition capacity (IC50)
[14] = biological target: PI4KIIIβ (Homo sapiens, UniProt Q9UBF8); assay: Phosphatidyl inositol kinase inhibition assay (ADP-Glo Kinase Assay); format: biochemical
Procedure: as §2

[15] = biological target: PI4KIIIα (Homo sapiens, UniProt P42356); assay: as above; format: biochemical; settings: * no inhibition at the highest tested concentration 1 μM
Chain of PI4KIIIα (P42356 whole entry): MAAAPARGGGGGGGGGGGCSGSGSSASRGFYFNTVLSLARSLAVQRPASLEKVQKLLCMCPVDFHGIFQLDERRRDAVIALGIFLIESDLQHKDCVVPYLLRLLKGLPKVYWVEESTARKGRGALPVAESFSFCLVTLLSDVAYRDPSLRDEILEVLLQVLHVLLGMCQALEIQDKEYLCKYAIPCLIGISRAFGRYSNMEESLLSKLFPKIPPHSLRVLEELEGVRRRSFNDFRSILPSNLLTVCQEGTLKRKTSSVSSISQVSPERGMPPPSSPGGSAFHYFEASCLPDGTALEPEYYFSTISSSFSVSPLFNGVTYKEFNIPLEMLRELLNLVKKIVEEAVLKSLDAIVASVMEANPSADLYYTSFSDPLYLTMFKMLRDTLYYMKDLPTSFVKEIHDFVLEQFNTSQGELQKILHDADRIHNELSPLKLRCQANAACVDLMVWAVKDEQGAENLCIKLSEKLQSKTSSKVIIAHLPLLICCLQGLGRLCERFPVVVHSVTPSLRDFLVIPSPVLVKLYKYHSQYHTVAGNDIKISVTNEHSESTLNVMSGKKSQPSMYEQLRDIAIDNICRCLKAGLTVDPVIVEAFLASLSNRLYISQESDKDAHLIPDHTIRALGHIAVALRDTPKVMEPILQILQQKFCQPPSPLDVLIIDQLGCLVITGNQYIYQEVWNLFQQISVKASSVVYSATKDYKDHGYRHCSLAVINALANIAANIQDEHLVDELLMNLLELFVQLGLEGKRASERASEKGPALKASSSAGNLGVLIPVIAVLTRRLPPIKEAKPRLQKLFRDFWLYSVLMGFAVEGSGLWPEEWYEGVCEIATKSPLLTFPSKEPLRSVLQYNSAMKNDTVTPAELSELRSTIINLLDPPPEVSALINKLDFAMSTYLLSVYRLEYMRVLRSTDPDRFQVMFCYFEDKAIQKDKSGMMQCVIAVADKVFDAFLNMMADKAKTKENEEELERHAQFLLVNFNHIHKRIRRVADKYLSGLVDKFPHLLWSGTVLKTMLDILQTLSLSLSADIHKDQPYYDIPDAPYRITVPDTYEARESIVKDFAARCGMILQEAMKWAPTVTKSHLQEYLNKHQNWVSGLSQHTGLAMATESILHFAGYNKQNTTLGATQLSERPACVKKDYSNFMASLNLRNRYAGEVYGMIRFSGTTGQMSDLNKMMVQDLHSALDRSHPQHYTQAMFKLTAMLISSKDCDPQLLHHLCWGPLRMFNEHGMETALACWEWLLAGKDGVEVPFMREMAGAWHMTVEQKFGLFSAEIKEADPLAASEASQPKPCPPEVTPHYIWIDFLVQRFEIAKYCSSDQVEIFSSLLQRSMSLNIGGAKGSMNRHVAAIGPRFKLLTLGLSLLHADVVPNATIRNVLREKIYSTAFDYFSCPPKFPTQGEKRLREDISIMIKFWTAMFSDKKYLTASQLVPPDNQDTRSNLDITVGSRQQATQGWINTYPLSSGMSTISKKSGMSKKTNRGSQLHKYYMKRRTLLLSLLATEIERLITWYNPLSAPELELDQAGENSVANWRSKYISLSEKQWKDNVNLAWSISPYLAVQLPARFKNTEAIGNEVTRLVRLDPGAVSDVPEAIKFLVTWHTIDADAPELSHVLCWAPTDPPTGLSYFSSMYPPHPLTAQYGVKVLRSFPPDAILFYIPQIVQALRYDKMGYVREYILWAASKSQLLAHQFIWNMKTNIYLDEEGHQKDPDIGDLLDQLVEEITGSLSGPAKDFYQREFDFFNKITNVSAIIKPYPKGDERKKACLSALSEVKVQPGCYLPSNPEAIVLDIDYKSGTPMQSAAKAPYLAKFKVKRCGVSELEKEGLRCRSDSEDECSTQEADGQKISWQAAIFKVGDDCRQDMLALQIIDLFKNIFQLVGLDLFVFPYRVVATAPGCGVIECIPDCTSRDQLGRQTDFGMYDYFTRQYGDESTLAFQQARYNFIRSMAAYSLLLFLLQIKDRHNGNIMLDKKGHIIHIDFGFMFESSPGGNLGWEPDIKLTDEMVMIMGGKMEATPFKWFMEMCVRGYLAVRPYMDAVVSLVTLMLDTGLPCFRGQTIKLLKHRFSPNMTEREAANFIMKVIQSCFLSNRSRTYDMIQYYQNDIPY
Procedure: as §2

[16] = test system: coxsackie B4 virus; assay: In vitro CPE assay in mammalian cell culture, B4; format: cell-based; settings: Enterovirus B, viral cytopathic effect in mammalian cell culture, read-out: B4 inhibition capacity (IC50)
[17] = in vivo; design: species or system Sprague Dawley rats; settings: male, Sprague Dawley, rat, po, 50 mg/kg
Procedure: Overnight fasted animals were administered with the test compounds in recommended vehicle 0.4% (v/v) Tween 80+2% (v/v) Glycerol and 15% w/v HPBCD by oral route with a dose of 50 mg/kg body weight at dose volume of 10 mL/kg bw. Under mild isoflurane anesthesia, blood samples were collected into pre-labeled tubes containing anticoagulant (K2EDTA—2 mg/mL blood) during the next 24 hours post dose. Collected blood samples were centrifuged at 4000 rpm, 4° C. for 10 minutes and plasma was separated and stored at −80° C. until analysis.

[18] = test system: Enterovirus 6; assay: In vitro CPE assay in mammalian cell culture, EV6; format: cell-based; settings: viral cytopathic effect in mammalian cell culture, read-out: EV6 inhibition capacity (IC50)
[19] = test system: coxsackie B5 virus; assay: In vitro CPE assay in mammalian cell culture, B5; format: cell-based; settings: viral cytopathic effect in mammalian cell culture, read-out: B5 inhibition capacity (IC50)

## Cc1cc(NCc2ccc(S(C)(=O)=O)cc2)n2nc(C)c(-c3ccc4c(c3)c(C)nn4C)c2n1 [Example 12, 3-(1,3-dimethyl-1H-indazol-5-yl)-2,5-dimethyl-N-(4-(methyl-sulfonyl)benzyl)pyrazolo[1,5-a]pyrimidin-7-amine]
[1]; human liver microsomes, 5 μM test item, 0.125 mg/mL microsomal protein
  Remaining after 1 h, HLM: 84%
[1]; human, microsomes
  half-life at 5 μM: > 2 h
[2]
  Remaining after 1 h, RLM: 71%
[3]
  IC50: < 10 nM
[4]; human
  fraction unbound at 4 h, 5 μM: 0.01
[4]; rat
  fraction unbound at 4 h, 5 μM: 0.015
[5]
  IC50: < 1 nM
[6]
  IC50: < 100 nM
[7]
  IC50: > 1000 nM
[8]
  IC50: > 1000 nM
[9]
  NOAEL at 7 days: 50 mg/kg/day
[10]
  IC50: < 10 nM
[11]
  IC50: < 10 nM
[12]
  IC50: < 1 nM
[13]
  IC50: < 10 nM
[14]
  IC50: 0.8 nM
[15]
  IC50: 800 nM
[16]
  IC50: < 1 nM
[17]
  AUC(0-inf): 73300 ± 46900 ng·h/mL
  AUC(0-t): 30000 ± 8200 ng·h/mL
  AUCextrap: 49.4 ± 24.5%
  Cmax: 1900 ± 100 ng/mL
  MRT last: 10.3 ± 1.2 h
  Tmax: 5.3 ± 2.3 h
  half-life: 27.6 ± 16.8 h
[18]
  IC50: < 10 nM
[19]
  IC50: < 1 nM
